From patent publication US10028992B2, “Methods of treating muscular dystrophy” (BOARD OF REGENTS OF THE NEVADA SYSTEM OF HIGHER EDUCATION …, priority 2012, dated 2018)
Where two headings read alike, the source gives them in different places.

System: α7 integrin promoter
Assay: muscle cell-based assay: α7βgal+/− myoblasts/myotubes, LacZ reporter, β-galactosidase cleavage of FDG
Design: species or system mouse
Procedure, shortened: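 Primary α7βgal+/− mouse myoblasts (LacZ knocked into α7 integrin exon 1, promoter retained), differentiated; promoter activity read as β-galactosidase conversion of non-fluorescent FDG to fluorescein. Hits followed by dose-response, western analysis and myostatin counterscreen.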

| Compound | Results in a α7+/− β-galactosidase assay, Myotubes, 0.5 uM (Myotubes, compound at 0.5 uM) | Results in a α7+/− β-galactosidase assay, Myotubes, 1 uM (Myotubes, compound at 1 uM) | Results in a α7+/− β-galactosidase assay, Myotubes, 5 uM (Myotubes, compound at 5 uM) | Results in a α7+/− β-galactosidase assay, Myotubes, 10 uM (Myotubes, compound at 10 uM) | Results in a α7+/− β-galactosidase assay, Myotubes, 20 uM (Myotubes, compound at 20 uM) | Results in a α7+/− β-galactosidase assay, Myotubes, 40 uM (Myotubes, compound at 40 uM) | Results in a α7+/− β-galactosidase assay, Myotubes, 0.5 uM | Results in a α7+/− β-galactosidase assay, Myotubes, 1 uM | Results in a α7+/− β-galactosidase assay, Myotubes, 5 uM | Results in a α7+/− β-galactosidase assay, Myotubes, 10 uM | Results in a α7+/− β-galactosidase assay, Myotubes, 20 uM | Results in a α7+/− β-galactosidase assay, Myotubes, 40 uM |
| --- | --- | --- | --- | --- | --- | --- | --- | --- | --- | --- | --- | --- |
| COCCSc1ccccc1C(=O)Nc1cc(C)cc(C)c1 [drawing 387] | −0.1267 | 0.09331 | −0.1086 | 0.1203 | −0.2283 | −0.2601 | – | – | – | – | – | – |
| CC(=O)Nc1ccc(NC(=O)c2cc(=O)c3cc(C)cc(C)c3o2)cc1 [drawing 388] | −0.05012 | −0.03106 | −0.1165 | 0.3265 | −0.3385 | −0.2657 | – | – | – | – | – | – |
| COc1ccc(-c2c[nH]nc2-c2ccc(OC)cc2)cc1 [drawing 389] | – | – | – | – | – | – | −0.01143 | 0.1883 | 0.3888 | 0.8585 | 0.03803 | −0.2518 |
| Cc1cccc(Sc2nc(-c3ccccc3)ccc2C#N)c1 [drawing 390] | −0.06701 | −0.1813 | 0.02472 | 0.2322 | −0.3206 | −0.2803 | – | – | – | – | – | – |
| CCC(C)NC(=O)CSc1nnc(COc2ccc(Br)cc2)o1 (stereo not drawn) [drawing 391] | −0.04347 | −0.169 | −0.2461 | −0.2857 | −0.2196 | −0.2848 | – | – | – | – | – | – |
| Cc1ccc(N2C(=O)C3NN=C(C(=O)OCc4ccccc4)C3C2=O)cc1 (stereo not drawn) [drawing 392] | −0.03749 | −0.0238 | −0.168 | −0.2332 | 0.00778 | −0.01262 | – | – | – | – | – | – |
| Cc1cc([N+](=O)[O-])ccc1NC(=O)C(C)N1CCN(c2ccccn2)CC1 (stereo not drawn) [drawing 393] | 0.0774 | 0.107 | −0.1042 | −0.1154 | −0.297 | −0.3729 | – | – | – | – | – | – |
| CCc1nc(/C=C2\C(=O)Nc3ccccc32)c[nH]1 [drawing 394] | 0.2902 | 0.2582 | −0.08702 | −0.09062 | −0.0001 | −0.1577 | – | – | – | – | – | – |
| O=C(Cn1nc(-c2ccc(Cl)cc2)ccc1=O)N1CCC2(CC1)OCCO2 [drawing 395] | – | – | – | – | – | – | 0.1803 | 0.1627 | −0.1502 | −0.1782 | −0.08792 | −0.2213 |
| CCOC(=O)C1(Cc2cccc(Cl)c2)CCCN(C(=O)CCSC)C1 (stereo not drawn) [drawing 396] | −0.05788 | 0.02732 | −0.3174 | −0.211 | −0.1814 | −0.4242 | – | – | – | – | – | – |
| Cc1cccc2c(/N=N/c3ccc(S(=O)(=O)Nc4ccc(Cl)cc4)cc3[N+](=O)[O-])c(O)[nH]c12 [drawing 397] | −0.03979 | −0.05535 | −0.02922 | 0.02994 | −0.2047 | −0.2727 | – | – | – | – | – | – |
| CC(C)c1ccc(OC(=O)c2cccc(S(=O)(=O)N3CCN(C)CC3)c2)cc1 [drawing 398] | −0.02436 | 0.01638 | −0.2473 | 0.3054 | −0.1863 | −0.2246 | – | – | – | – | – | – |
| CC(C)c1ccc(NC(=O)CN2C(=O)c3ccccc3S2(=O)=O)cc1 [drawing 399] | −0.1815 | −0.0433 | 0.02954 | −0.2491 | −0.1353 | −0.1392 | – | – | – | – | – | – |
| NC(=O)c1sc2nc3c(cc2c1N)CCC3 [drawing 400] | −0.1099 | −0.1307 | −0.1528 | 0.5381 | 0.07998 | 0.08496 | – | – | – | – | – | – |
| O=C(Nc1ccccc1OC(=O)c1ccc(Cl)cc1)c1ccc(Cl)cc1 [drawing 401] | −0.03464 | 0.02857 | −0.09525 | −0.1056 | −0.1495 | −0.3841 | – | – | – | – | – | – |
| CC(NC(=O)c1ccc(C(C)(C)C)cc1)C(c1cccs1)N1CCOCC1 (stereo not drawn) [drawing 402] | 0.08612 | 0.07635 | 0.06551 | 0.1287 | −0.144 | −0.1386 | – | – | – | – | – | – |
| CCC(=O)c1ccc(OCC(O)CN2CCOC(C)C2)cc1.O=C(O)C(=O)O (stereo not drawn) [drawing 403] | 0.08149 | 0.03201 | −0.09666 | −0.1187 | 0.08332 | 0.1461 | – | – | – | – | – | – |
| CC1CCN(C(CNS(=O)(=O)c2ccccc2)c2ccccc2)CC1 (stereo not drawn) [drawing 404] | 0.1307 | 0.1946 | −0.1201 | −0.1176 | −0.1296 | −0.1429 | – | – | – | – | – | – |
| COC(=O)c1ccc(/N=N/c2ccccc2)cc1 [drawing 405] | −0.111 | 0.1978 | −0.1462 | −0.2093 | −0.1861 | −0.2357 | – | – | – | – | – | – |
| CN(CCC1CCCCO1)C(=O)CCc1nnc(CCCCc2ccccc2)o1 (stereo not drawn) [drawing 407] | 0.03419 | 0.03033 | −0.2337 | −0.1125 | −0.1283 | −0.1202 | – | – | – | – | – | – |
